Like-named read-outs stand apart in the source and are kept apart here.

The results in this text go back to patent US10508089B2, “Use of N-(1,3,4-Oxadiazol-2-yl)arylcarboxamides or their salts for controlling unwanted plants in areas of transgenic crop plants being tolerant to HPPD inhibitor herbicides” (BASF SE, priority 2014, dated 2019).

One test relates to wild type soybean Thorne. Type of test: in vivo. As to conditions: 14 days after treatment, total 4.
Test [1] concerns T2 soybean events expressing PfHPPD-Evo33. Format: in vivo. The conditions noted are these: 14 days after treatment.

As for `Cc1nnc(NC(=O)c2ccc(C(F)(F)F)c(S(C)(=O)=O)c2C)o1` [Compound 2-145], the “Number of plants categorized herbicide tolerance “0” (marginal; 41%-100% damaged leaf area)” value in the test on wild type soybean Thorne (Thorne (wt), 6.25 g Al/ha) stood at 4; in the test on wild type soybean Thorne (Thorne, 25 g Al/ha), 4; in test [1] (6.25 g Al/ha, total 12), 0; in test [1] (25 g Al/ha, total 16), 1; in test [1] (50 g Al/ha, total 4), 0; in test [1] (75 g Al/ha, total 4), 0. Also, the “Number of plants categorized herbicide tolerance “1” (moderate; 26%-40% damaged leaf area)” value in the test on wild type soybean Thorne (Thorne (wt), 6.25 g Al/ha) worked out at 0; in the test with wild type soybean Thorne (Thorne, 25 g Al/ha), 0; in test [1] (6.25 g Al/ha, total 12), 0; in test [1] (25 g Al/ha, total 16) it was 1; in test [1] (50 g Al/ha, total 4), 0; in test [1] (75 g Al/ha, total 4), 0. Besides, the “Number of plants categorized herbicide tolerance “2” (good; 16%-25% damaged leaf area)” value with wild type soybean Thorne (Thorne (wt), 6.25 g Al/ha) was 0; in the test with wild type soybean Thorne (Thorne, 25 g Al/ha), 0; in test [1] (6.25 g Al/ha, total 12), 0; in test [1] (25 g Al/ha, total 16), 0; in test [1] (50 g Al/ha, total 4) it was 1; in test [1] (75 g Al/ha, total 4), 0. Moreover, the “Number of plants categorized herbicide tolerance “3” (high; less than or equal to 15% damaged leaf area)” value was 0 with wild type soybean Thorne (Thorne (wt), 6.25 g Al/ha); 0 with wild type soybean Thorne (Thorne, 25 g Al/ha); 12 in test [1] (6.25 g Al/ha, total 12); 14 in test [1] (25 g Al/ha, total 16); 3 in test [1] (50 g Al/ha, total 4); 4 in test [1] (75 g Al/ha, total 4).
